Assay results: paper PMC9181938, “Fluorinated Analogues of Lepidilines A and C: Synthesis and Screening of Their Anticancer and Antiviral Activity” (Molecules, 2022)
Like-named read-outs stand apart in the source and are kept apart here.

Key:
[1] = Cytotoxicity MTT assay (0.1–1000 µM), CC50; type: cell-based, Cercopithecus aethiops; details: Cercopithecus aethiops, Vero cells, read-out: CC50 Normal Cell Lines Vero
[2] = Cytotoxicity MTT assay (0.1–1000 µM), CC50; type: cell-based, Macaca mulatta; details: Macaca mulatta, LLC-MK2 cells, LLC-MK2, MTT, 48 h; read-out: CC50 Normal Cell Lines LLC-MK2
[3] = Cytotoxicity MTT assay (0.1–1000 µM), CC50; type: cell-based, Mus musculus; details: Mus musculus, NCTC clone 929 cells, NCTC clone 929, MTT, 48 h; read-out: CC50 Normal Cell Lines NCTC Clone 929
[4] = Cytotoxicity MTT assay (0.1–1000 µM), CC50; type: cell-based, Human; details: human, MRC-5 cells, MRC-5, MTT, read-out: CC50 Normal Cell Lines MRC-5
[5] = Cytotoxicity MTT assay (0.1–1000 µM), CC50; type: cell-based, Human; details: human, HeLa cells, MTT, 48 h, read-out: CC50 Cancer Cell Lines HeLa
[6] = Cytotoxicity MTT assay (0.1–1000 µM), CC50; type: cell-based, Human; details: human, A549 cells, read-out: CC50 Cancer Cell Lines A549
[7] = Cytotoxicity MTT assay (0.1–1000 µM), CC50; type: cell-based, Human; details: human, HepG2 cells, read-out: CC50 Cancer Cell Lines HepG2
[8] = system: Human herpesvirus 5 (HCMV); experiment: Antiviral activity assay (0.1–1000 µM), IC50, plaque reduction; type: cell-based; details: Human betaherpesvirus 5, 20 PFU/well
Method: (§1) Antiviral properties of compounds 1e–1g, 1e[PF6], 8a–8d, and 9a were assessed against five viruses: Human herpesvirus 1 (HSV-1, VR-539), Human parainfluenza virus type 3 (HPIV-3, VR-93), Human adenovirus 5 (AdV5, VR-5), Human herpesvirus 5 (HCMV, VR-977), and Encephalomyocarditis virus (EMCV, VR-1479). Viruses were purchased from the American Type Culture Collection (ATCC, Manassas, VA, USA).
(§2) All tested compounds were dissolved in DMSO (dimethyl sulfoxide, Sigma-Aldrich, Darmstadt, Germany) and then suspended in Minimum Essential Medium (MEM; Sigma-Aldrich, Darmstadt, Germany) supplemented with 2% heat-inactivated fetal bovine serum (FBS; Sigma-Aldrich, Darmstadt, Germany), 2 mM L-glutamine (Sigma-Aldrich, Darmstadt, Germany), and 100 units/mL penicillin G with […] streptomycin (Sigma-Aldrich, Darmstadt, Germany).
(§3) Investigated cells were propagated in Minimum Essential Medium (MEM; Sigma-Aldrich, Darmstadt, Germany) supplemented with 10% heat-inactivated fetal bovine serum (FBS; Sigma-Aldrich, Darmstadt, Germany) and 100 units/mL penicillin G with […] streptomycin (Sigma-Aldrich, Darmstadt, Germany). After reaching 80–90% confluency, cells were harvested with trypsin (Life Technologies, Warsaw, Poland) and seeded into 96-well microplates at 2 × 10^5 cells/mL after overnight incubation of cells at 37 °C in a humidified atmosphere containing 5% CO2.
(§4) The culture medium was removed from confluent cells grown in 96-well microplates, and the cells were inoculated with virus solutions in MEM supplemented with 2% FBS and antibiotics (HSV-1 MOI 0.005, 1000 virions/mL; HPIV-3 MOI 0.01, 2000 virions/mL; AdV5 MOI 0.005, 1000 virions/mL; EMCV 0.005, 1000 virions/mL; HCMV 20 PFU/well (plaque-forming units per well). After a 1-h (HSV-1, HPIV-3, AdV5, and EMCV) or 2-h adsorption period (HCMV), residual viral particles were removed, and infected cells were further incubated with MEM supplemented with 2% FBS containing compound concentrations in the range from 0.1 to 1000 µM [38]. All experiments were carried out in triplicate. The cell monolayers were incubated with the investigated compounds at 37 °C in a humidified atmosphere containing 5% CO2 until a cytopathic effect (CPE) was visible. Viral infection was evaluated by the MTT assay (as described previously) or plaque reduction assay. HCMV plaques were counted under an inverted microscope, Olympus IX73 (Olympus, Tokyo, Japan). Antiviral activity was expressed as the concentration required to reduce the number of viral plaques to 50% of the control (virus-infected but untreated).

[9] = system: Encephalomyocarditis virus (EMCV); experiment: Antiviral activity assay (0.1–1000 µM), IC50; type: cell-based; details: Cardiovirus A, MOI 0.005, read-out: IC50 EMCV
Method: as §1, §2, §3, §4

[10] = system: Human adenovirus 5 (AdV5); experiment: Antiviral activity assay (0.1–1000 µM), IC50; type: cell-based; details: Human mastadenovirus C; AdV5, MOI 0.005; read-out: IC50 AdV5
Method: as §1, §2, §3, §4

[11] = system: Human herpesvirus 1 (HSV-1); experiment: Antiviral activity assay (0.1–1000 µM), IC50; type: cell-based; details: Human alphaherpesvirus 1; HSV-1, MOI 0.005
Method: as §1, §2, §3, §4

[12] = system: Human parainfluenza virus type 3 (HPIV-3); experiment: Antiviral activity assay (0.1–1000 µM), IC50; type: cell-based; details: Human respirovirus 3, HPIV-3, MOI 0.01; read-out: IC50 HPIV-3
Method: as §1, §2, §3, §4

[13] = system: LLC-MK2 cells; experiment: Cytotoxicity MTT assay (0.1–1000 µM), CC50; type: cell-based, Macaca mulatta; details: LLC-MK2, MTT, 48 h; read-out: CC50 Normal Cell Lines LLC-MK2

Row | IC50 [8] | IC50 [9] | IC50 [10] | IC50 [11] | IC50 [12] | melting point | Structure (SMILES) | CC50 at 48 h [1] | CC50 at 48 h [2] | CC50 at 48 h [3] | CC50 at 48 h [4] | CC50 at 48 h [5] | CC50 at 48 h [6] | CC50 at 48 h [7] | CC50 [13]
1 | > 24.3 µM | > 90.7 µM | > 7.33 µM | > 143 µM | > 257 µM | 108 to 110 °C | Cc1c(C)[n+](OCc2ccccc2)cn1Cc1cccc(OC(F)(F)F)c1.[Br-] [Compound 8b, 3-Benzyloxy-4,5-dimethyl-1-[3-(trifluoromethoxy)benzyl]imidazolium bromide] | 143 ± 2.89 µM | 257 ± 6.77 µM | 90.7 ± 4.16 µM | 24.3 ± 2.08 µM | 7.33 ± 0.76 µM | 5.5 ± 0.5 µM | 163 ± 6.43 µM | –
2 | > 45.7 µM | > 28.5 µM | > 16 µM | > 53.7 µM | > 55 µM | 123 to 125 °C | Cc1c(C)[n+](OCc2ccccc2)cn1Cc1ccccc1C(F)(F)F.[Br-] [Compound 8c, 3-Benzyloxy-4,5-dimethyl-1-(2-(trifluoromethyl)benzyl)imidazolium bromide] | 53.7 ± 1.53 µM | 55 ± 1 µM | 28.5 ± 0.5 µM | 45.7 ± 3.79 µM | 16 ± 1 µM | 7.37 ± 0.32 µM | 95 ± 1 µM | –
3 | > 59.7 µM | > 283 µM | > 5.5 µM | > 229 µM | > 7.5 µM | 180 to 182 °C (dec.) | Cc1c(C)[n+](OCc2ccccc2)cn1Cc1ccc(C(F)(F)F)cc1.[Br-] [Compound 8d, 3-Benzyloxy-4,5-dimethyl-1-[4-(trifluoromethyl)benzyl]imidazolium bromide] | 229 ± 9.02 µM | 7.5 ± 1 µM | 283 ± 10.4 µM | 59.7 ± 2.52 µM | 5.5 ± 0.5 µM | 5.07 ± 0.12 µM | 322 ± 5.77 µM | –
4 | > 0.09 µM | > 3.75 µM | > 0.019 µM | > 0.347 µM | > 0.04 µM | 216 to 217 °C | FC(F)(F)c1cccc(C[n+]2cn(Cc3ccccc3)c(-c3ccccc3)c2-c2ccccc2)c1.[Br-] [Compound 9a, 1-Benzyl-4,5-diphenyl-3-[3-(trifluoromethyl)benzyl]imidazolium bromide] | – | 0.04 to 0.347 µM | 3.75 ± 0.087 µM | – | 0.019 ± 0.001 µM | 0.035 ± 0.005 µM | 6.9 ± 0.361 µM | 40 ± 2 nM
